Experimental data from patent US8785457B2 (Cellzome Limited, priority 2009, dated 2014).
Like-named read-outs stand apart in the source and are kept apart here.

Target: T1, mTOR (Homo sapiens, UniProt P42345)
T1 construct: endogenous in cells; host or cells: Jurkat, clone E6-1 (ATCC TIB-152) cell lysate
Test: mTOR kinobeads assay (competitive binding in Jurkat cell lysate, immunodetection)
Procedure, shortened: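 IC50 derived from dose-response curves of mTOR captured on immobilized phenylmorpholin-chromen beads, detected by antibody dot blot with infrared fluorescence.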

[1] = Further Kinobeads Data, read-out: mTor
[2] = kinobeads assay, Table 4, read-out: Inhibition values (IC50) mTor
[3] = kinobeads assay, Table 6, read-out: Inhibition values (IC50) mTOR

Row | IC50 [1] | IC50 [2] | IC50 [3] | Structure (SMILES)
1 | < 0.1 µM |  |  | CC(=O)N1Cc2nc(-c3ccc(NC(=O)NC4CC4)cc3F)nc(N3CCOC[C@@H]3C)c2C1 [Example 155, (S)-1-(4-(6-acetyl-4-(3-methylmorpholino)-6,7-dihydro-5H-pyrrolo[3,4-d]pyrimidin-2-yl)-3-fluorophenyl)-3-cyclopropylurea]
2 | < 0.1 µM |  |  | CC(C)N1Cc2nc(-c3ccc(NC(=O)NCCO)cc3F)nc(N3CCOC[C@@H]3C)c2C1 [Example 187, (S)-1-(3-fluoro-4-(6-isopropyl-4-(3-methylmorpholino)-6,7-dihydro-5H-pyrrolo[3,4-d]pyrimidin-2-yl)phenyl)-3-(2-hydroxyethyl)urea]
3 | 0.1 to 1 µM |  |  | C[C@@H]1COCCN1c1nc(-c2ccc(NC(=O)NC3CC3)cc2F)nc2c1CN(S(C)(=O)=O)C2 [Example 191, (R)-1-cyclopropyl-3-(3-fluoro-4-(4-(3-methylmorpholino)-6-(methylsulfonyl)-6,7-dihydro-5H-pyrrolo[3,4-d]pyrimidin-2-yl)phenyl)urea]
4 |  | < 0.1 µM | < 0.1 µM | CC(C)CN1CCc2c(nc(-c3ccc(NC(=O)NC4CC4)cc3)nc2N2CCOC[C@@H]2C)C1 [Example 42, (S)-1-cyclopropyl-3-(4-(7-isobutyl-4-(3-methylmorpholino)-5,6,7,8-tetrahydropyrido[3,4-d]pyrimidin-2-yl)phenyl)urea]
5 | < 0.1 µM |  |  | CCOC(=O)N1Cc2nc(-c3ccc(NC(=O)NCCO)cc3F)nc(N3CCOCC3)c2C1 [Example 171, ethyl 2-(2-fluoro-4-(3-(2-hydroxyethyl)ureido)phenyl)-4-morpholino-5H-pyrrolo[3,4-d]pyrimidine-6(7H)-carboxylate]
6 |  | 0.1 to 1 µM | 0.1 to 1 µM | CCNC(=O)Nc1ccc(-c2nc3c(c(N4CCOC[C@@H]4C)n2)CN(Cc2ccc(F)cc2)C3)cc1 [Example 29, (S)-1-ethyl-3-(4-(6-(4-fluorobenzyl)-4-(3-methylmorpholino)-6,7-dihydro-5H-pyrrolo[3,4-d]pyrimidin-2-yl)phenyl)urea]
7 | < 0.1 µM |  |  | CC(C)NC(=O)N1CCc2c(nc(-c3ccc(NC(=O)NC4CC4)cc3F)nc2N2CCOC[C@@H]2C)C1 [Example 189, (S)-2-(4-(3-cyclopropylureido)-2-fluorophenyl)-N-isopropyl-4-(3-methylmorpholino)-5,6-dihydropyrido[3,4-d]pyrimidine-7(8H)-carboxamide]
8 | < 0.1 µM |  |  | C[C@@H]1COCCN1c1nc(-c2ccc(NC(=O)NC3CC3)cc2F)nc2c1CN(C(=O)C1CC1)C2 [Example 188, (R)-1-(4-(6-(cyclopropanecarbonyl)-4-(3-methylmorpholino)-6,7-dihydro-5H-pyrrolo[3,4-d]pyrimidin-2-yl)-3-fluorophenyl)-3-cyclopropylurea]
9 |  | 0.1 to 1 µM | 0.1 to 1 µM | C[C@H]1COCCN1c1nc(-c2ccc(NC(=O)NC3CC3)cc2)nc2c1CNCC2 [Example 11, (S)-1-cyclopropyl-3-(4-(4-(3-methylmorpholino)-5,6,7,8-tetrahydropyrido[4,3-d]pyrimidin-2-yl)phenyl)urea]
10 |  | < 0.1 µM | < 0.1 µM | CCNC(=O)Nc1ccc(-c2nc3c(c(N4CCOC[C@@H]4C)n2)CN(C(=O)C(C)C)C3)cc1 [Example 21, (S)-1-ethyl-3-(4-(6-isobutyryl-4-(3-methylmorpholino)-6,7-dihydro-5H-pyrrolo[3,4-d]pyrimidin-2-yl)phenyl)urea]
11 |  | 0.1 to 1 µM | 0.1 to 1 µM | C[C@H]1COCCN1c1nc(-c2ccc(NC(=O)NC3CC3)cc2)nc2c1CN(CC(C)(C)C)C2 [Example 25, (S)-1-cyclopropyl-3-(4-(4-(3-methylmorpholino)-6-neopentyl-6,7-dihydro-5H-pyrrolo[3,4-d]pyrimidin-2-yl)phenyl)urea]
12 | < 0.1 µM |  |  | CCNC(=O)Nc1ccc(-c2nc3c(c(N4CCOC[C@@H]4C)n2)CCNC3)c(F)c1 [Example 164, (S)-1-ethyl-3-(3-fluoro-4-(4-(3-methylmorpholino)-5,6,7,8-tetrahydropyrido[3,4-d]pyrimidin-2-yl)phenyl)urea]
13 |  | 0.1 to 1 µM | 0.1 to 1 µM | CCNC(=O)Nc1ccc(-c2nc3c(c(N4CCOC[C@@H]4C)n2)CN(C(=O)c2ccc(F)cc2)C3)cc1 [Example 19, (S)-1-ethyl-3-(4-(6-(4-fluorobenzoyl)-4-(3-methylmorpholino)-6,7-dihydro-5H-pyrrolo[3,4-d]pyrimidin-2-yl)phenyl)urea]
14 |  | 0.1 to 1 µM | 0.1 to 1 µM | CCNC(=O)Nc1ccc(-c2nc3c(c(N4CCOC[C@@H]4C)n2)CCN(C(=O)c2ccc(F)cc2)C3)cc1 [Example 24, (S)-1-ethyl-3-(4-(7-(4-fluorobenzoyl)-4-(3-methylmorpholino)-5,6,7,8-tetrahydropyrido[3,4-d]pyrimidin-2-yl)phenyl)urea]
15 |  | < 0.1 µM | < 0.1 µM | C[C@H]1COCCN1c1nc(-c2ccc(NC(=O)NC3CC3)cc2)nc2c1CCNC2 [Example 15, (S)-1-cyclopropyl-3-(4-(4-(3-methylmorpholino)-5,6,7,8-tetrahydropyrido[3,4-d]pyrimidin-2-yl)phenyl)urea]
16 | < 0.1 µM |  |  | COC(=O)N1Cc2nc(-c3ccc(NC(=O)NCCF)cc3F)nc(N3CCOCC3)c2C1 [Example 169, Methyl 2-(2-fluoro-4-(3-(2-fluoroethyl)ureido)phenyl)-4-morpholino-5H-pyrrolo[3,4-d]pyrimidine-6(7H)-carboxylate]
17 |  | 0.1 to 1 µM | 0.1 to 1 µM | C[C@H]1COCCN1c1nc(-c2ccc(NC(=O)NC3CCC3)cc2)nc2c1CN(C)C2 [Example 55, (S)-1-cyclobutyl-3-(4-(6-methyl-4-(3-methylmorpholino)-6,7-dihydro-5H-pyrrolo[3,4-d]pyrimidin-2-yl)phenyl)urea]
18 |  | < 0.1 µM | < 0.1 µM | C[C@H]1COCCN1c1nc(-c2ccc(NC(=O)NC3CC3)cc2)nc2c1CN(C)C2 [Example 38, (S)-1-cyclopropyl-3-(4-(6-methyl-4-(3-methylmorpholino)-6,7-dihydro-5H-pyrrolo[3,4-d]pyrimidin-2-yl)phenyl)urea]
19 | < 0.1 µM |  |  | CC(C)N1Cc2nc(-c3ccc(NC(=O)NCCF)cc3F)nc(N3CCOCC3)c2C1 [Example 185, 1-(3-fluoro-4-(6-isopropyl-4-morpholino-6,7-dihyro-5H-pyrrolo[3,4-d]pyrimidin-2-yl)phenyl)-3-(2-fluoroethyl)urea]
20 | < 0.1 µM |  |  | CC(C)C(=O)N1Cc2nc(-c3ccc(NC(=O)NC4CC4)cc3F)nc(N3CCOC[C@@H]3C)c2C1 [Example 174, (S)-1-cyclopropyl-3-(3-fluoro-4-(6-isobutyryl-4-(3-methylmorpholino)-6,7-dihydro-5H-pyrrolo[3,4-d]pyrimidin-2-yl)phenyl)urea]
21 |  | < 0.1 µM | < 0.1 µM | C[C@H]1COCCN1c1nc(-c2ccc(NC(=O)NC3CC3)cc2)nc2c1CN(CC1CC1)C2 [Example 30]
22 | 0.1 to 1 µM |  |  | CCNC(=O)Nc1ccc(-c2nc3c(c(N4CCOCC4)n2)CN(C)C3)c(F)c1 [Example 154, 1-ethyl-3-(3-fluoro-4-(6-methyl-4-morpholino-6,7-dihydro-5H-pyrrolo[3,4-d]pyrimidin-2-yl)phenyl)urea]
23 |  | < 0.1 µM | < 0.1 µM | CCNC(=O)Nc1ccc(-c2nc3c(c(N4CCOC[C@@H]4C)n2)CN(C(=O)C2CC2)C3)cc1 [Example 23, (S)-1-(4-(6-(cyclopropanecarbonyl)-4-(3-methylmorpholino)-6,7-dihydro-5H-pyrrolo[3,4-d]pyrimidin-2-yl)phenyl)-3-ethylurea]
